In patent US9115092B2, “Substituted quinazoline and pyrido-pyrimidine derivatives” (Asana Biosciences, LLC, priority 2010, dated 2015):

Columns and labels:
[1] = system: pS6RP(S235/236), PC3 cells; experiment: In-cell Western assay, pS6RP(S235/236) in PC3 cells; format: cell-based, human; settings: Homo sapiens, PC-3, In-cell Western
Protocol: Cells from human prostate cancer cell line PC3 (American Type Culture Collection (ATCC), Manassas, Va. 20108 USA) were seeded at an optimal density of 22,000 cell/well in 96-well plates containing Ham's F12K medium (90 μL) and incubated overnight. The compound dilutions were carried out in 100% DMSO followed by a dilution in the medium. Test compounds were added in serial dilutions to the wells and incubated for 2 h. The cells were washed and fixed with 4% paraformaldehyde. After incubation at room temperature for 1 h in the dark, blocking was done for 2 h at room temperature. Primary antibodies for phosphorylated (p) AKT(5473) (phosphorylated at serine 473), pAKT(T308) (phosphorylated at threonine 308) and for pS6RP(S235/236) (phosphorylated at serine 235/236) (commercially available from Cell Signaling Technology®, whose protocol was followed for the in-cell western assay, were diluted to the required concentration and added to the corresponding wells followed by overnight incubation at 4° C. Eu-labeled rabbit (PE) (Perkin-Elmer USA catalog #AD0106) secondary antibody was added and incubated for 2 h at room temperature. Delfia® enhancement solution (cat #1244-105, Perkin Elmer USA) was subsequently added to the plate before taking the reading at 615 nm with excitation wavelength of 340 nm, after which 0.5 μg/mL of Hoechst® 33258 dye (Catalog #86140-5, Sigma) was added to the plate and fluorescence emission was read at 460 nm with 355 nm excitation, to evaluate the correction factor. IC50 values were calculated using a sigmoidal dose-response curve fit in GraphPad Prism® v5 software.

[2] = target: T1, PI3Kα (wild-type), P110/P85α (Homo sapiens, UniProt P42336); experiment: PI3 Kinase TR-FRET assay, PI3Kα (wild-type); format: biochemical
T1 construct: made in house; host or cells: SF9 insect cells
T1 sequence (P42336 whole entry): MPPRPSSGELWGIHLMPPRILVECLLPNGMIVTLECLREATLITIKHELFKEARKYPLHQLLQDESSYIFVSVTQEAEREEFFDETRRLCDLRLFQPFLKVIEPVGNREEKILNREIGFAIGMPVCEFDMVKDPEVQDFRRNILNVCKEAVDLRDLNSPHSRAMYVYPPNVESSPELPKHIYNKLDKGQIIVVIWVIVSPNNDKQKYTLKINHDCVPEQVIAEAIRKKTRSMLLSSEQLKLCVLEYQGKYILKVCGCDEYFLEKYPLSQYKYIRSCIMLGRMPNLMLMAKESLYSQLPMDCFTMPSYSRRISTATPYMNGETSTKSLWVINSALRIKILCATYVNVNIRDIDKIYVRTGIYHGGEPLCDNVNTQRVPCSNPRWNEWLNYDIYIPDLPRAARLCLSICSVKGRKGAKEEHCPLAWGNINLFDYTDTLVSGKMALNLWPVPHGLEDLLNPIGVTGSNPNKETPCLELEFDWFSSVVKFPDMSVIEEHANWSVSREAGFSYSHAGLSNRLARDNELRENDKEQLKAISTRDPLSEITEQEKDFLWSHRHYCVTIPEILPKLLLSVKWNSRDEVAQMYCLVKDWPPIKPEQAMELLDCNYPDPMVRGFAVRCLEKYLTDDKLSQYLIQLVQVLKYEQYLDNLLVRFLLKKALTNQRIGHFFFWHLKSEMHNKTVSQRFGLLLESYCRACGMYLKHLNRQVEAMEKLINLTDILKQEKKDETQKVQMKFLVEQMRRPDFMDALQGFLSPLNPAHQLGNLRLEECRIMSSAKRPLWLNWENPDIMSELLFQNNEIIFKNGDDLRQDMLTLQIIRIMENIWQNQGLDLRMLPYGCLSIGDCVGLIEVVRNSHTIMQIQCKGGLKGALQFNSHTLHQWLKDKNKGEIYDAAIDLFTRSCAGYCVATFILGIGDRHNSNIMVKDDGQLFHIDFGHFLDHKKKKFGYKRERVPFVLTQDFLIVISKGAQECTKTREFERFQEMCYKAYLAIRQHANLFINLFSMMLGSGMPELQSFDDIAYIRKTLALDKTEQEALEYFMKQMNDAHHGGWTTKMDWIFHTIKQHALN
T1 sequence (P27986 whole entry partner): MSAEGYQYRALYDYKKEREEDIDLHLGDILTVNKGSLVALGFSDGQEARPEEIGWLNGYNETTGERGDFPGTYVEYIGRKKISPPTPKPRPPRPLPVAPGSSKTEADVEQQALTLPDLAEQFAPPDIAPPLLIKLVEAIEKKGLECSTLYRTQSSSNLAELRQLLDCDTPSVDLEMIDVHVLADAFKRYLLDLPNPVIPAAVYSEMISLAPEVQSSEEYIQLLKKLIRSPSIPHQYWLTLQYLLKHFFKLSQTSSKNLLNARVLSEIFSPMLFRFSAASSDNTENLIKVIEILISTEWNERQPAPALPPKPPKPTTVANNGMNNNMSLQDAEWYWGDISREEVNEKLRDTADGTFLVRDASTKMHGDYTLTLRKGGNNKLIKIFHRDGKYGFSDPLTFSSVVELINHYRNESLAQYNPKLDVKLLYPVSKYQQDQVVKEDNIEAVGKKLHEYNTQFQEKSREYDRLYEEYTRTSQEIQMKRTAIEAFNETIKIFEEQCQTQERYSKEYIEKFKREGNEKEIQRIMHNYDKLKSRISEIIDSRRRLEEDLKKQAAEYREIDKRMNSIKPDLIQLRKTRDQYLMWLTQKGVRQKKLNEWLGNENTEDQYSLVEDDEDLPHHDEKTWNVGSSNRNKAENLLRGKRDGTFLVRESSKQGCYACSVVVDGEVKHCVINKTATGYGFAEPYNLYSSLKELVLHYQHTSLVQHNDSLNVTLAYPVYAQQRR
Method in brief: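 Sf9-expressed His-purified P110/P85α (5 ng) preincubated 60 min RT with compound and PIP2 in buffer with 40 mM MgCl2, 5 mM DTT; reaction started with ATP (PIP2 and ATP both 10 μM), 30 min RT. PIP3 detected by TR-FRET displacement, 665/615 nm ratio; IC50 from dose-response curves.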

[3] = target: T2, mTOR kinase (Homo sapiens, UniProt P42345); experiment: mTOR kinase TR-FRET assay; format: biochemical; settings: read-out: mTO R
T2 construct: purchased Millipore, USA
Method in brief: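 Compounds preincubated 60 min with mTOR (5 ng) in HEPES pH 7.5, EGTA, MnCl2; ULight-p70 S6K Thr389 peptide (50 nM) and ATP (20 μM) then added, 60 min at room temperature. EDTA-stopped, Eu-anti-phospho antibody detection by TR-FRET (665/615 nm); IC50 from variable-slope sigmoidal fit.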

[4] = system: PC3 cells; experiment: XTT assay for cell viability, PC3 cells; format: cell-based, human; settings: Homo sapiens, PC-3, cell viability
Method in brief: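 PC3 cells seeded at 1000 cells/well, grown 24 h, then exposed to serial dilutions of compound for 96 h. Viability read by XTT dye at 37° C, absorbance 465 nm. EC50 from sigmoidal dose-response fit.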

IC50 [1] | IC50 [2] | IC50 [3] | IC50 [4] | SMILES
0.201 to 10 µM | < 0.05 µM | < 0.05 µM | 0.201 to 10 µM | CNC(=O)c1ccc(NC(=O)Nc2ccc(-c3nc(N4CCOCC4)c4ncc(-c5cnn(C)c5)cc4n3)cc2)cc1 [Example 89, N-methyl-4-(3-(4-(7-(1-methyl-1H-pyrazol-4-yl)-4-morpholino-pyrido[3,2-d]pyrimidin-2-yl)phenyl)ureido)-benzamide]
0.201 to 10 µM | < 0.05 µM | < 0.05 µM | 0.201 to 10 µM | CN(C)C(=O)c1ccc(NC(=O)Nc2ccc(-c3nc(N4CCOCC4)c4ccc(-c5cccnc5F)cc4n3)cc2F)cc1 [Example 91, 4-(3-(2-fluoro-4-(7-(2-fluoropyridin-3-yl)-4-morpholino-quinazolin-2-yl)phenyl)ureido)-N,N-dimethyl-benzamide]
0.201 to 10 µM | < 0.05 µM | < 0.05 µM | 0.201 to 10 µM | CN(C)C(=O)c1ccc(NC(=O)Nc2ccc(-c3nc(N4CCOCC4)c4ncc(-c5cnc(N)nc5)cc4n3)cc2)cc1 [Example 92, 4-(3-(4-(7-(2-aminopyrimidin-5-yl)-4-morpholino-pyrido[3,2-d]pyrimidin-2-yl)phenyl)ureido)-N,N-dimethyl-benzamide]
0.201 to 10 µM | < 0.05 µM | < 0.05 µM | 0.201 to 10 µM | Cc1ccncc1-c1cnc2c(N3CCOCC3)nc(-c3ccc(NC(=O)Nc4ccc(C(=O)N(C)C)cc4)cc3)nc2c1 [Example 93, N,N-dimethyl-4-(3-(4-(7-(4-methylpyridin-3-yl)-4-morpholino-pyrido[3,2-d]pyrimidin-2-yl)phenyl)ureido)-benzamide]
0.201 to 10 µM | < 0.05 µM | < 0.05 µM | 0.201 to 10 µM | COc1ncc(-c2cnc3c(N4CCOCC4)nc(-c4ccc(NC(=O)Nc5ccc(C(=O)N(C)C)cc5)cc4)nc3c2)cn1 [Example 94, 4-(3-(4-(7-(2-methoxypyrimidin-5-yl)-4-morpholino-pyrido[3,2-d]pyrimidin-2-yl)phenyl)ureido)-N,N-dimethyl-benzamide]
0.501 to 5 µM | 0.05 to 0.2 µM | 0.05 to 0.2 µM | < 0.1 µM | COc1cccc(-c2ccc3c(N4CCOCC4)nc(-c4ccc(NC(=O)Nc5ccc(C(=O)N(C)C)cc5)cc4)nc3c2)n1 [Example 95, 4-(3-(4-(7-(6-methoxypyridin-2-yl)-4-morpholino-quinazolin-2-yl)phenyl)ureido)-N,N-dimethyl-benzamide]
0.201 to 10 µM | < 0.05 µM | < 0.05 µM | 0.201 to 10 µM | CN(C)C(=O)c1ccc(NC(=O)Nc2ccc(-c3nc(N4CCOCC4)c4ncc(-c5ccnnc5)cc4n3)cc2)cc1 [Example 96, N,N-dimethyl-4-(3-(4-(4-morpholino-7-(pyridazin-4-yl)pyrido[3,2-d]pyrimidin-2-yl)phenyl)ureido)-benzamide]
0.201 to 10 µM | < 0.05 µM | < 0.05 µM | 0.201 to 10 µM | CN(C)C(=O)c1ccc(NC(=O)Nc2ccc(-c3nc(N4CCOCC4)c4ccc(-c5cnn(C)c5)cc4n3)cc2F)cc1 [Example 97, 4-(3-(2-fluoro-4-(7-(1-methyl-1H-pyrazol-4-yl)-4-morpholino-quinazolin-2-yl)phenyl)ureido)-N,N-dimethyl-benzamide]
0.201 to 10 µM | 0.05 to 0.2 µM | < 0.05 µM | 0.201 to 10 µM | CN(C)C(=O)c1ccc(NC(=O)Nc2ccc(-c3nc(N4CCOCC4)c4ccc(-c5ccnnc5)cc4n3)cc2F)cc1 [Example 98, 4-(3-(2-fluoro-4-(4-morpholino-7-(pyridazin-4-yl)quinazolin-2-yl)phenyl)ureido)-N,N-dimethyl-benzamide]
0.201 to 10 µM | < 0.05 µM | < 0.05 µM | 0.201 to 10 µM | CN(C)C(=O)c1ccc(NC(=O)Nc2ccc(-c3nc(N4CCOCC4)c4cc(F)c(-c5cncnc5)cc4n3)cc2F)cc1 [Example 99, 4-(3-(2-fluoro-4-(6-fluoro-4-morpholino-7-(pyrimidin-5-yl)quinazolin-2-yl)phenyl)ureido)-N,N-dimethyl-benzamide]
0.201 to 10 µM | < 0.05 µM | < 0.05 µM | 0.201 to 10 µM | Cc1ccncc1-c1ccc2c(N3CCOCC3)nc(-c3ccc(NC(=O)Nc4ccc(C(=O)N(C)C)cc4)c(F)c3)nc2c1 [Example 100, 4-(3-(2-fluoro-4-(7-(4-methylpyridin-3-yl)-4-morpholino-quinazolin-2-yl)phenyl)ureido)-N,N-dimethyl-benzamide]
0.201 to 10 µM | < 0.05 µM | < 0.05 µM | 0.201 to 10 µM | CN(C)C(=O)c1ccc(NC(=O)Nc2ccc(-c3nc(N4CCOCC4)c4ncc(-c5cncnc5)cc4n3)cc2F)cc1 [Example 101, 4-(3-(2-fluoro-4-(4-morpholino-7-(pyrimidin-5-yl)pyrido[3,2-d]pyrimidin-2-yl)phenyl)ureido)-N,N-dimethyl-benzamide]
0.201 to 10 µM | < 0.05 µM | < 0.05 µM | 0.201 to 10 µM | CN(C)C(=O)c1ccc(NC(=O)Nc2ccc(-c3nc(N4CCOCC4)c4ncc(-c5cccnc5)cc4n3)cc2F)cc1 [Example 102, 4-(3-(2-fluoro-4-(4-morpholino-7-(pyridin-3-yl)pyrido[3,2-d]pyrimidin-2-yl)phenyl)ureido)-N,N-dimethyl-benzamide]
0.201 to 10 µM | < 0.05 µM | < 0.05 µM | 0.201 to 10 µM | CN(C)C(=O)c1ccc(NC(=O)Nc2ccc(-c3nc(N4CCOCC4)c4ccc(-c5cccnc5)cc4n3)cc2F)cc1 [Example 103, 4-(3-(2-fluoro-4-(4-morpholino-7-(pyridin-3-yl)quinazolin-2-yl)phenyl)ureido)-N,N-dimethyl-benzamide]
0.201 to 10 µM | 0.05 to 0.2 µM | < 0.05 µM | 0.201 to 10 µM | COc1ncc(-c2ccc3c(N4CCOCC4)nc(-c4ccc(NC(=O)Nc5ccc(C(=O)N(C)C)cc5)c(F)c4)nc3c2)cn1 [Example 105, 4-(3-(2-fluoro-4-(7-(2-methoxypyrimidin-5-yl)-4-morpholino-quinazolin-2-yl)phenyl)ureido)-N,N-dimethyl-benzamide]
0.201 to 10 µM | < 0.05 µM | < 0.05 µM | 0.201 to 10 µM | CN(C)C(=O)c1ccc(NC(=O)Nc2ccc(-c3nc(N4CCOCC4)c4ncc(-c5cccnc5F)cc4n3)cc2F)cc1 [Example 106, 4-(3-(2-fluoro-4-(7-(2-fluoropyridin-3-yl)-4-morpholino-pyrido[3,2-d]pyrimidin-2-yl)phenyl)ureido)-N,N-dimethyl-benzamide]
0.201 to 10 µM | < 0.05 µM | < 0.05 µM | 0.201 to 10 µM | CN(C)C(=O)c1ccc(NC(=O)Nc2ccc(-c3nc(N4CCOCC4)c4cc(F)c(-c5cccnc5F)cc4n3)cc2)cc1 [Example 107, 4-(3-(4-(6-fluoro-7-(2-fluoropyridin-3-yl)-4-morpholino-quinazolin-2-yl)phenyl)ureido)-N,N-dimethyl-benzamide]
0.501 to 5 µM | < 0.05 µM | 0.201 to 10 µM | < 0.1 µM | CN(C)C(=O)c1ccc(NC(=O)Nc2ccc(-c3nc(N4CCOCC4)c4cc(F)c(-c5cccnc5F)cc4n3)cn2)cc1 [Example 112, 4-(3-(5-(6-fluoro-7-(2-fluoropyridin-3-yl)-4-morpholino-quinazolin-2-yl)pyridin-2-yl)ureido)-N,N-dimethyl-benzamide]
0.201 to 10 µM | < 0.05 µM | 0.05 to 0.2 µM | 0.201 to 10 µM | CN(C)C(=O)c1ccc(NC(=O)Nc2ccc(-c3nc(N4CCOCC4)c4ncc(-c5cccc(S(C)(=O)=O)c5)cc4n3)cn2)cc1 [Example 115, N,N-dimethyl-4-(3-(5-(7-(3-(methylsulfonyl)phenyl)-4-morpholino-pyrido[3,2-d]pyrimidin-2-yl)pyridin-2-yl)ureido)-benzamide]
0.201 to 10 µM | < 0.05 µM | < 0.05 µM | < 0.1 µM | COc1ncc(-c2cnc3c(N4CCOCC4)nc(-c4ccc(NC(=O)Nc5ccc(C(=O)N(C)C)cc5)c(F)c4)nc3c2)cn1 [Example 117, 4-(3-(2-fluoro-4-(7-(2-methoxypyrimidin-5-yl)-4-morpholino-pyrido[3,2-d]pyrimidin-2-yl)phenyl)ureido)-N,N-dimethyl-benzamide]
